pIC50: −log10 of the molar value.
Assays:
[1] = biological target: T1, estrogen receptor alpha (ERalpha) (Homo sapiens, UniProt P03372); test: Estrogen-R (α) competitor screening kit, ligand binding screen; settings: for pIC50: ER alpha competitor binding, non-linear regression, one site competition; for RBA (Relative binding affinity): IC50 of estradiol divided by IC50 of the tested compound, multiplied by 100, Estradiol = 100; for % Binding to ERα: mean ± S.E.M., n = 4
T1 construct: purchased Wako Chemicals (Osaka, Japan)
T1 sequence (P03372 1-595): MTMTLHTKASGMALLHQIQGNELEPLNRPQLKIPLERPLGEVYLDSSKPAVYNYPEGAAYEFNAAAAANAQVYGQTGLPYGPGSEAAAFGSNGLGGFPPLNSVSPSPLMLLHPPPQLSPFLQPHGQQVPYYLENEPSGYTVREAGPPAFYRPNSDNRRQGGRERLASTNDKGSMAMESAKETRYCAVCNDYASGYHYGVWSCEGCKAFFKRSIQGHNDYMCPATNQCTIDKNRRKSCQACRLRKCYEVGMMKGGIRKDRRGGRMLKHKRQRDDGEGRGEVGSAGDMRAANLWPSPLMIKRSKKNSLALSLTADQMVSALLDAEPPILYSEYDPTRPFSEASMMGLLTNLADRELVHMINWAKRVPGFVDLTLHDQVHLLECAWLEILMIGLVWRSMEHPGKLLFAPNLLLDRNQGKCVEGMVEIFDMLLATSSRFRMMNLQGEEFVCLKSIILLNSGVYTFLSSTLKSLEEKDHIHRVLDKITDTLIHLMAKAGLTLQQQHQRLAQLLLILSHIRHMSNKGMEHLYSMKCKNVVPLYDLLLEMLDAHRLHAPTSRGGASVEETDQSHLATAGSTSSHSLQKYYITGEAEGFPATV
Procedure: An estrogen-R (α) competitor screening kit was purchased from Wako Chemicals (Osaka, Japan). The assay depends on the competition between the samples applied in different concentrations and the labeled estrogen mixture. The amount of the ligand that binds to the ERalpha coated on the microplate well is determined by the dynamic equilibrium among all the ligand concentrations in the mixture, the difference of their binding affinities to the receptor, and the incubation time. Therefore, the reduction in fluorescence intensities from the labeled estrogen retained is an indication of the affinity of the added compounds to the estrogen receptor. (−)-Arctigenin (8) and its metabolites were tested in 10^−5, 10^−4, 5 × 10^−4, and 5 × 10^−3 M concentrations. […] The results were calculated as percentages of the negative control.
Each set of experiments was repeated at least three times. Values are expressed as mean ± S.E.M. One-way analysis of variance followed by Dunnett’s test was used for statistical analysis. The IC50 was calculated using a non-linear regression analysis (for one site competition).

[2] = system: MCF-7 human breast cancer cells; parameters: method as in earlier work; settings: estradiol-mediated proliferative characteristics; ref 10 (Xie et al.); cited from earlier work
[3] = compound at 5 × 10^−3 M, percentage of the negative control
[4] = compound at 5 × 10^−4 M, percentage of the negative control
[5] = compound at 10^−4 M, percentage of the negative control
[6] = compound at 10^−5 M, percentage of the negative control (labeled estrogen mixture)

SMILES	pIC50 [1]	RBA (Relative binding affinity) [1]	% Binding to ERα [1, 3] [%]	% Binding to ERα [1, 4] [%]	% Binding to ERα [1, 5] [%]	% Binding to ERα [1, 6] [%]	proliferation of MCF-7 human breast cancer cells [2]
O=C1OC[C@H](Cc2ccc(O)c(O)c2)[C@H]1Cc1ccc(O)c(O)c1 [Compound 1, (−)-dihydroxyenterolactone]	2.80	1.2 × 10^−3	65.3 ± 0.2	34.8 ± 1.3	13.7 ± 0.7	5.6 ± 3.3	
COc1cc(C[C@H]2C(=O)OC[C@@H]2Cc2ccc(O)c(O)c2)ccc1O [Compound 2, (2R,3R)-2-(4-hydroxy-3-methoxybenzyl)-3-(3,4-dihydroxybenzyl)-butyrolactone]	3.10	2.5 × 10^−3	67.7 ± 0.2	44.4 ± 0.9	13.5 ± 2.0	1.4 ± 1.2	
COc1cc(C[C@H]2COC(=O)[C@@H]2Cc2ccc(O)c(O)c2)ccc1O [Compound 3]	2.72	1.0 × 10^−3	67.5 ± 0.2	25.8 ± 0.8	14.1 ± 1.3	2.2 ± 1.6	
COc1ccc(C[C@H]2COC(=O)[C@@H]2Cc2ccc(O)c(O)c2)cc1O [Compound 4]	2.60	7.9 × 10^−4	63.2 ± 0.3	19.6 ± 2.3	−0.5 ± 0.7	1.0 ± 1.4	
COc1cc(C[C@H]2COC(=O)[C@@H]2Cc2ccc(O)c(OC)c2)ccc1O [Compound 5, (−)-matairesinol]	< 2.30		17.6 ± 1.1	0.1 ± 2.6	18.1 ± 9.0	0.4 ± 0.9	
COc1ccc(C[C@H]2COC(=O)[C@@H]2Cc2ccc(O)c(O)c2)cc1OC [Compound 6]	2.60	7.9 × 10^−4	64.5 ± 0.2	16.6 ± 0.9	1.4 ± 2.4	−2.3 ± 0.9	stimulated the proliferation
COc1ccc(C[C@H]2COC(=O)[C@@H]2Cc2ccc(O)c(OC)c2)cc1O [Compound 7]	< 2.30		30.1 ± 1.7	−4.2 ± 0.8	1.2 ± 1.7	3.6 ± 0.6	
COc1cc(C[C@H]2C(=O)OC[C@@H]2Cc2ccc(OC)c(OC)c2)ccc1O [Compound 8, (−)-arctigenin]	< 2.30		19.4 ± 1.5	−4.1 ± 3.5	−4.3 ± 0.8	−1.4 ± 0.8	

— article PMC6269892, “Ligand Binding Affinities of Arctigenin and Its Demethylated Metabolites to Estrogen Receptor Alpha” (Molecules, 2013)
